{"source": "patent US9771430B2", "about": "“Method of treating a metabolic disorder induced by obesity in a subject in need thereof by administering MK2/3 inhibitors” (THE TRUSTEES OF COLUMBIA UNIVERSITY IN THE CITY OF NEW YORK, priority 2011, dated 2017)", "key": {"G6pc and Pck1 mRNA": {"system": "G6pc and Pck1 mRNA", "test": "G6pc and Pck1 mRNA (RT-qPCR) in primary mouse hepatocytes", "assay_type": "cell-based", "details": "glucagon / forskolin", "protocol": "FIG. 32A-E. Related to FIG. 26—p38. FIG. 32A Mice were fed ad libitum or fasted for 12 h. Liver phospho-p38, total p38, p-MK2, total MK-2, and β-actin were assayed by immunoblot. FIG. 32B WT HCs were serum-depleted overnight and then incubated for 5 h with 100 nm glucagon in serum-free media with or without SB202190; or glucagon was added to HCs from P38a^fl/fl mice treated with adeno-LacZ (control) or adeno-Cre. RNA was assayed for G6pc and Pck1 mRNA (*P<0.05; mean±S.E.M.). FIG. 32C HCs from fasting WT and Camk2g^−/− mice were assayed for p-p38, total p38, and β-actin. FIG. 32D WT mice were injected i.p. with 12.5 mg kg^−1 body weight of p38 inhibitor (SB202190) or vehicle control. 12 h later, the mice were injected with an additional dose of SB202190 and fasted overnight. The livers were assayed for nuclear FoxO1, nucleophosmin, p-MK2, total MK-2, and β-actin. The correlation between nuclear FoxO1 and p-MK2 band intensities is shown in the graph. FIG. 32E Adeno-GFP-FoxO1-transduced HCs were serum-depleted overnight, and then incubated for 5 h in serum-free media with SB202190 or vehicle (Veh) control. FoxO1 localization was assessed by indirect immunofluorescence (Bar, 10 μm; *P<0.05; mean±S.E.M.).\nFIGS. 53A-B. MK-2 regulates hepatic FoxO1 subcellular localization and hepatic G6Pc and Pck1. FIG. 53A. Adeno-GFP-FoxO1-transduced HCs were serum-depleted overnight, and then incubated for 30 min in serum-free media with 2 uM MK-2 inhibitor or vehicle (Veh) control. FoxO1 localization was assessed by indirect immunofluorescence (Bar, […]; *P<0.005; mean±S.E.M.). FIG. 53B WT HCs were serum-depleted overnight and then incubated for 5 h with 100 nm glucagon in serum-free media with or without MK-2 inhibitor. RNA was assayed for G6pc and Pck1 mRNA (*P<0.005; mean±S.E.M.). MK-2 Inhibitor is from Calbiochem (cat#475864): 2-(2-Quinolin-3-ylpyridin-4-yl)-1,5,6,7-tetrahydro-4H-pyrrolo-[3,2-c]pyridin-4-one.\nFIG. 69. MK-2 inhibitor suppresses forskolin-induced Pck1 and G6Pc induction in primary hepatocytes. Primary hepatocytes from WT mice were serum-depleted overnight and then pre-treated with 300 nM MK-2 inhibitor (compound 28) or vehicle for 1 h. Cells were then treated with 2 μM forskolin in serum-free media with or without the inhibitor for 4 h. RNA was assayed for G6pc and Pck1 mRNA by RT-qPCR. *, P<0.0001.\nPrimary mouse HCs were isolated from 8- to 12-week-old mice as described previously (Matsumoto et al., 2002). For most experiments, the HCs were serum-depleted overnight by incubation in medium containing 0.5% fetal calf serum and were then incubated for 5 h in serum-free media, with individual treatments noted in the figure legends. HCs were transduced with adenoviral constructs 12 h after plating, and experiments were conducted 24 h after transduction. Transfections with WT, 7A- and 9A-Foxo1 were carried out using jetPEI™-hepatocyte DNA transfection reagent (Polyplus-transfection, Inc.) according to manufacturer's instructions.\nImmunoblot and RT-qPCR assays were performed as previously described (Timmins et al., 2009). Total RNA was extracted from HCs using the RNeasy kit (Qiagen). cDNA was synthesized from 2 μg total RNA using oligo (dT) and Superscript II (Invitrogen). Nuclear extraction from liver was performed using the Nuclear Extraction Kit from Panomics according to the manufacturer's instructions. […] Whether their origin is alternative splicing or post-translational modification remains to be determined."}, "calcineurin": {"system": "calcineurin", "test": "Calcineurin activity in primary hepatocytes", "assay_type": "cell-based, mouse", "protocol": "HEK293T (ATCC) cells were cultured in DMEM containing 10% FBS (HyClone), […] penicillin-streptomycin. Mouse primary hepatocytes were isolated and cultured as previously described (18). Cellular fractionation studies were conducted as previously reported (18). For reporter studies, Ad-CRE-luc infected hepatocytes (1 pfu per cell) were exposed to glucagon (Gcg, 100 nM) for 2˜4 h. For cyclosporine A (CsA, 10 μM) or okadaic acid (OA, 100 nM) or cell permeable calcineurin autoinhibitory peptide (10 μM) or CN585 (100 μM) or Calyculin A (10 nM) or Xestospongin C (Xc, 2 μM) or H89 (30 μM) or BAPTA (50 μM) inhibition, hepatocytes were pre-treated with the inhibitors for one hour. Luciferase activities were normalized to β-galactosidase activity from adenoviral-encoded RSV β-gal. Calcineurin activity (test kit from Enzo Life Sciences) and cellular cAMP levels (test kit from Cayman Chemical Company) were measured according to manufacturer's instructions."}, "IP3R": {"system": "IP3R", "test": "IICR in freshly isolated peritoneal cavity macrophages of Xestospongin C-treated ob/ob mice", "assay_type": "in vivo, mouse", "details": "treatment of ob/ob mice", "description": "FIGS. 50A-M. The role of IP3R in obesity/insulin resistance induced hyperglycemia and gluconeogenesis. FIG. 50A. Evidence that Xestospongin C Treatment of ob/ob Mice Inhibits IP3R Assay of IICR in Freshly Isolated Peritoneal Cavity Macrophages. FIG. 50B-E. Inhibition of IP3R Reduces Fasting Blood Glucose Levels in ob/ob Mice. FIG. 50F. Inhibition of IP3R Reduces Hepatic Expression of PEPCK, G6Pase, and PGC1α in ob/ob. FIG. 50G-I. Inhibition of IP3R Reduces Expression of PEPCK, G6Pase, and PGC1α in Palmitate-Treated Hepatocytes as a Model of ER Stress and Insulin Resistance. FIG. 50J-K. Inhibition of IP3R Reduces Expression of G6Pase and PEPCK in Akt-Inhibited Hepatocytes as a Model of Insulin Resistance. FIG. 50L. IP3R Activity is Required for Forskolin-Induced TORC2 Dephosphorylation. FIG. 50M. IP3R Activation is Required for TORC2 Nuclear Retention."}}, "data": [{"compound": "C1CCC[C@H]2CCCN3CC[C@@H](CCCCCC[C@@H]4CCCN5CC[C@@H](CC1)O[C@@H]45)O[C@@H]23", "note": "[Xestospongin C]", "values": [{"measurement": "induction of the gluconeogenic program", "setting": "G6pc and Pck1 mRNA", "result": "blocked"}, {"measurement": "calcineurin activation in response to glucagon and forskolin", "setting": "calcineurin", "result": "disrupted"}, {"measurement": "IP3R (IICR) in peritoneal cavity macrophages", "setting": "IP3R", "result": "Inhibits"}]}]}
